# Assays:
# [1] = tested on: common (oilseed) sunflower; assay: Test C pre-/postemergence herbicide test; assay type: in vivo, Helianthus annuus; conditions: preemergence; for Plant response rating (0 = no effect, 100 = complete control), Sunflower: 125 g ai/ha
# Outline: (§1)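 Pre/post spray; non-phytotoxic solvent + surfactant. Post-timing 1–4 leaves, 2–18 cm. Read-out: visual % control vs untreated, day 12–14, greenhouse.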
# ducksalad = assay: Test C flooded paddy test; assay type: in vivo, Heteranthera limosa; conditions: for Plant response rating, Ducksalad: 500 g ai/ha, visual rating after 12 to 14 days
# rice = assay: Test C flooded paddy test; assay type: in vivo, Oryza sativa; conditions: for Plant response rating, Rice: 500 g ai/ha, visual rating after 12 to 14 days
# Outline: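 Postemergence sprays applied to plants 2 to 18 cm tall (1- to 4-leaf stage); paddy species grown to 2-leaf stage under flooding. After 12 to 14 days in greenhouse, visual rating versus untreated controls on 0–100 scale (0 no effect, 100 complete control).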
# large crabgrass = assay: Test C pre-/postemergence herbicide test; assay type: in vivo, Digitaria sanguinalis; conditions: preemergence; for Plant response rating (0 = no effect, 100 = complete control), Crabgrass, Large: 125 g ai/ha
# Outline: as §1
# corn = assay: Test C pre-/postemergence herbicide test; assay type: in vivo, Zea mays; conditions: preemergence; for Plant response rating (0 = no effect, 100 = complete control), Corn: 125 g ai/ha
# Outline: as §1
# giant foxtail = assay: Test C pre-/postemergence herbicide test; assay type: in vivo, Setaria faberi; conditions: preemergence; for Plant response rating (0 = no effect, 100 = complete control), Foxtail, Giant: 125 g ai/ha
# Outline: as §1
# [2] = tested on: smallflower umbrella sedge; assay: Test C flooded paddy test; assay type: in vivo, Cyperus difformis; conditions: for Plant response rating, Sedge, Umbrella: 500 g ai/ha, visual rating after 12 to 14 days
# common ragweed = assay: Test C pre-/postemergence herbicide test; assay type: in vivo, Ambrosia elatior; parameters: key to Plant response rating, Ragweed: 0 = no effect, 100 = complete control; conditions: preemergence; for Plant response rating (0 = no effect, 100 = complete control), Ragweed: 125 g ai/ha
# Outline: as §1
# kochia = assay: Test C pre-/postemergence herbicide test; assay type: in vivo, Kochia scoparia; conditions: preemergence; for Plant response rating (0 = no effect, 100 = complete control), Kochia: 125 g ai/ha
# Outline: as §1
# bermudagrass = assay: Test C pre-/postemergence herbicide test; assay type: in vivo, Cynodon dactylon; conditions: preemergence; for Plant response rating (0 = no effect, 100 = complete control), Bermudagrass: 125 g ai/ha
# Outline: as §1
# morningglory = assay: Test C pre-/postemergence herbicide test; assay type: in vivo, Ipomoea coccinea; parameters: key to Plant response rating, Morningglory: 0 = no effect, 100 = complete control; conditions: preemergence; for Plant response rating (0 = no effect, 100 = complete control), Morningglory: 125 g ai/ha
# Outline: as §1
# [3] = 500 g ai/ha, scale 0 to 100 (0 no effect, 100 complete control), visual, 12 to 14 days
# [4] = 125 g ai/ha, scale 0 to 100 (0 no effect, 100 complete control)
# [5] = 250 g ai/ha, scale of 0 to 100, 0 is no effect, 100 is complete control
# [6] = scale 0 to 100 (0 no effect, 100 complete control)
# [7] = 62 g ai/ha, scale 0 to 100, 0 no effect, 100 complete control
smiles,measurement,setting,value
CCC1=NN(C(C)(C)C)CC1C(=O)Nc1cc(C(=O)N(C)CC)ccc1F (racemic) [Compound 342],"Plant response rating, Sunflower","[1]; 62 g ai/ha, scale 0 to 100",5
same,"Plant response rating (0 = no effect, 100 = complete control), Sunflower",[1],20
same,"Plant response rating, Sunflower","[1]; 250 g ai/ha, scale 0-100",75
same,"Plant response rating, Sunflower",[1]; [3],100
same,Ducksalad plant response rating,"ducksalad; 62 g ai/ha, scale 0 to 100",50
same,Ducksalad plant response rating,ducksalad; [4],50
same,Ducksalad plant response rating,ducksalad; [5],80
same,"Plant response rating, Ducksalad",ducksalad; [6],80
same,Rice plant response rating,"rice; 62 g ai/ha, scale 0 to 100",20
same,Rice plant response rating,rice; [4],30
same,Rice plant response rating,rice; [5],60
same,"Plant response rating, Rice",rice; [6],80
same,"Plant response rating, Crabgrass, Large","large crabgrass; 62 g ai/ha, scale 0 to 100",60
same,"Plant response rating (0 = no effect, 100 = complete control), Crabgrass, Large",large crabgrass,60
same,"Plant response rating, Crabgrass, Large","large crabgrass; 250 g ai/ha, scale 0-100",70
same,"Plant response rating, Crabgrass, Large",large crabgrass; [3],85
same,"Plant response rating, Corn","corn; 62 g ai/ha, scale 0 to 100",10
same,"Plant response rating (0 = no effect, 100 = complete control), Corn",corn,50
same,"Plant response rating, Corn","corn; 250 g ai/ha, scale 0-100",70
same,"Plant response rating, Corn",corn; [3],90
same,"Plant response rating, Foxtail, Giant","giant foxtail; 62 g ai/ha, scale 0 to 100",0
same,"Plant response rating (0 = no effect, 100 = complete control), Foxtail, Giant",giant foxtail,40
same,"Plant response rating, Foxtail, Giant","giant foxtail; 250 g ai/ha, scale 0-100",55
same,"Plant response rating, Foxtail, Giant",giant foxtail; [3],70
same,"Sedge, Umbrella plant response rating","[2]; 62 g ai/ha, scale 0 to 100",40
same,"Sedge, Umbrella plant response rating",[2]; [4],50
same,"Sedge, Umbrella plant response rating",[2]; [5],70
same,"Plant response rating, Sedge, Umbrella",[2]; [6],80
same,"Plant response rating, Ragweed","common ragweed; 62 g ai/ha, scale 0 to 100",55
same,"Plant response rating (0 = no effect, 100 = complete control), Ragweed",common ragweed,95
same,"Plant response rating, Ragweed","common ragweed; 250 g ai/ha, scale 0-100",100
same,"Plant response rating, Ragweed",common ragweed; [3],100
same,"Plant response rating, Kochia","kochia; 62 g ai/ha, scale 0 to 100",50
same,"Plant response rating (0 = no effect, 100 = complete control), Kochia",kochia,100
same,"Plant response rating, Kochia","kochia; 250 g ai/ha, scale 0-100",100
same,"Plant response rating, Kochia",kochia; [3],100
same,"Plant response rating, Bermudagrass",bermudagrass; [7],45
same,"Plant response rating (0 = no effect, 100 = complete control), Bermudagrass",bermudagrass,60
same,"Plant response rating, Bermudagrass","bermudagrass; 250 g ai/ha, scale 0-100",90
same,"Plant response rating, Bermudagrass",bermudagrass; [3],90
same,"Plant response rating, Morningglory","morningglory; 62 g ai/ha, scale 0 to 100",0
same,"Plant response rating (0 = no effect, 100 = complete control), Morningglory",morningglory,5
same,"Plant response rating, Morningglory","morningglory; 250 g ai/ha, scale 0-100",70
same,"Plant response rating, Morningglory",morningglory; [3],100
CCNC(=O)c1ccc(F)c(N(C(C)=O)C(=O)c2cc(C(C)(C)C)nn2CC)c1 [Compound 399],"Plant response rating, Sunflower","[1]; 62 g ai/ha, scale 0 to 100",0
same,"Plant response rating (0 = no effect, 100 = complete control), Sunflower",[1],0
same,"Plant response rating, Sunflower",[1]; [3],35
same,Ducksalad plant response rating,"ducksalad; 62 g ai/ha, scale 0 to 100",75
same,Ducksalad plant response rating,ducksalad; [4],75
same,Ducksalad plant response rating,ducksalad; [5],85
same,"Plant response rating, Ducksalad",ducksalad; [6],85
same,Rice plant response rating,"rice; 62 g ai/ha, scale 0 to 100",65
same,Rice plant response rating,rice; [4],65
same,Rice plant response rating,rice; [5],75
same,"Plant response rating, Rice",rice; [6],75
same,"Plant response rating, Crabgrass, Large","large crabgrass; 62 g ai/ha, scale 0 to 100",100
same,"Plant response rating (0 = no effect, 100 = complete control), Crabgrass, Large",large crabgrass,100
same,"Plant response rating, Crabgrass, Large","large crabgrass; 250 g ai/ha, scale 0-100",100
same,"Plant response rating, Crabgrass, Large",large crabgrass; [3],100
same,"Plant response rating, Corn","corn; 62 g ai/ha, scale 0 to 100",60
same,"Plant response rating (0 = no effect, 100 = complete control), Corn",corn,70
same,"Plant response rating, Corn","corn; 250 g ai/ha, scale 0-100",80
same,"Plant response rating, Corn",corn; [3],95
same,"Plant response rating, Foxtail, Giant","giant foxtail; 62 g ai/ha, scale 0 to 100",95
same,"Plant response rating (0 = no effect, 100 = complete control), Foxtail, Giant",giant foxtail,100
same,"Plant response rating, Foxtail, Giant","giant foxtail; 250 g ai/ha, scale 0-100",100
same,"Plant response rating, Foxtail, Giant",giant foxtail; [3],100
same,"Sedge, Umbrella plant response rating","[2]; 62 g ai/ha, scale 0 to 100",65
same,"Sedge, Umbrella plant response rating",[2]; [4],70
same,"Sedge, Umbrella plant response rating",[2]; [5],85
same,"Plant response rating, Sedge, Umbrella",[2]; [6],85
same,"Plant response rating, Ragweed","common ragweed; 62 g ai/ha, scale 0 to 100",95
same,"Plant response rating (0 = no effect, 100 = complete control), Ragweed",common ragweed,100
same,"Plant response rating, Ragweed",common ragweed; [3],100
same,"Plant response rating (0 = no effect, 100 = complete control), Kochia",kochia,80
same,"Plant response rating, Kochia","kochia; 250 g ai/ha, scale 0-100",100
same,"Plant response rating, Kochia",kochia; [3],100
same,"Plant response rating, Bermudagrass",bermudagrass; [7],100
same,"Plant response rating (0 = no effect, 100 = complete control), Bermudagrass",bermudagrass,100
same,"Plant response rating, Bermudagrass","bermudagrass; 250 g ai/ha, scale 0-100",100
same,"Plant response rating, Bermudagrass",bermudagrass; [3],100
same,"Plant response rating, Morningglory","morningglory; 62 g ai/ha, scale 0 to 100",15
same,"Plant response rating (0 = no effect, 100 = complete control), Morningglory",morningglory,25
same,"Plant response rating, Morningglory",morningglory; [3],75
CCc1nn(C(C)(C)CC)nc1C(=O)Nc1cccc(C(=O)N(C)C)c1 [Compound 372],"Plant response rating, Sunflower","[1]; 62 g ai/ha, scale 0 to 100",0
same,"Plant response rating (0 = no effect, 100 = complete control), Sunflower",[1],0
same,"Plant response rating, Sunflower","[1]; 250 g ai/ha, scale 0-100",0
same,"Plant response rating, Sunflower",[1]; [3],60
same,Ducksalad plant response rating,"ducksalad; 62 g ai/ha, scale 0 to 100",65
same,Ducksalad plant response rating,ducksalad; [4],85
same,Ducksalad plant response rating,ducksalad; [5],85
same,"Plant response rating, Ducksalad",ducksalad; [6],85
same,Rice plant response rating,"rice; 62 g ai/ha, scale 0 to 100",80
same,Rice plant response rating,rice; [4],85
same,Rice plant response rating,rice; [5],90
same,"Plant response rating, Rice",rice; [6],90
same,"Plant response rating, Crabgrass, Large","large crabgrass; 62 g ai/ha, scale 0 to 100",70
same,"Plant response rating (0 = no effect, 100 = complete control), Crabgrass, Large",large crabgrass,85
same,"Plant response rating, Crabgrass, Large","large crabgrass; 250 g ai/ha, scale 0-100",95
same,"Plant response rating, Crabgrass, Large",large crabgrass; [3],95
same,"Plant response rating, Corn","corn; 62 g ai/ha, scale 0 to 100",60
same,"Plant response rating (0 = no effect, 100 = complete control), Corn",corn,60
same,"Plant response rating, Corn","corn; 250 g ai/ha, scale 0-100",65
same,"Plant response rating, Corn",corn; [3],65
same,"Plant response rating, Foxtail, Giant","giant foxtail; 62 g ai/ha, scale 0 to 100",70
same,"Plant response rating (0 = no effect, 100 = complete control), Foxtail, Giant",giant foxtail,85
same,"Plant response rating, Foxtail, Giant","giant foxtail; 250 g ai/ha, scale 0-100",90
same,"Plant response rating, Foxtail, Giant",giant foxtail; [3],90
same,"Sedge, Umbrella plant response rating","[2]; 62 g ai/ha, scale 0 to 100",80
same,"Sedge, Umbrella plant response rating",[2]; [4],85
same,"Sedge, Umbrella plant response rating",[2]; [5],85
same,"Plant response rating, Sedge, Umbrella",[2]; [6],85
same,"Plant response rating, Ragweed","common ragweed; 62 g ai/ha, scale 0 to 100",70
same,"Plant response rating (0 = no effect, 100 = complete control), Ragweed",common ragweed,90
same,"Plant response rating, Ragweed","common ragweed; 250 g ai/ha, scale 0-100",100
same,"Plant response rating, Ragweed",common ragweed; [3],100
same,"Plant response rating, Kochia","kochia; 62 g ai/ha, scale 0 to 100",100
same,"Plant response rating (0 = no effect, 100 = complete control), Kochia",kochia,100
same,"Plant response rating, Kochia","kochia; 250 g ai/ha, scale 0-100",100
same,"Plant response rating, Kochia",kochia; [3],100
same,"Plant response rating, Bermudagrass",bermudagrass; [7],75
same,"Plant response rating (0 = no effect, 100 = complete control), Bermudagrass",bermudagrass,98
same,"Plant response rating, Bermudagrass","bermudagrass; 250 g ai/ha, scale 0-100",98
same,"Plant response rating, Bermudagrass",bermudagrass; [3],100
same,"Plant response rating, Morningglory","morningglory; 62 g ai/ha, scale 0 to 100",0
same,"Plant response rating (0 = no effect, 100 = complete control), Morningglory",morningglory,5
same,"Plant response rating, Morningglory","morningglory; 250 g ai/ha, scale 0-100",40
same,"Plant response rating, Morningglory",morningglory; [3],80

# Reference: patent publication US20060069132A1, “Azolecarboxamide herbicides” (priority 2004, published 2006)
